What all share (assay type): cell-based, human
One assay deals with Jurkat cells. Kind of assay: FACS uptake of BODIPY FL conjugates in Jurkat cells (Example 3). Particulars: 200 nM. Here is the method:
FIG. 3B: Conjugate compounds coupled to BODIPY FL were tested for uptake using 200 nM each conjugate and 5 minute incubation with immortalized T lymphocyte cell line, Jurkat cells. Mean fluorescent intensities (MFI). 1,000 cells sorted by FACS. Bars represent mean±SD. Results represent a single experiment done in duplicate.
Materials and methods: Jurkat cells have been previously shown to be defective in the expression of two lipid phosphatases, PTEN (phosphatase and tensin homologue) and SHIP (SH2-domain-containing inositol polyphosphate 5′ phosphatase). The biological implications of SHIP deficiency in T cells remain under evaluation, but the loss of PTEN leads to activation of the phosphatidylinositol 3-kinase (PI3K)-signalling pathway. See Abraham and Weiss, 2004. This activation of PI3K protein is also on NZM40 melanoma cell line, and represents a key mutation for its sustained proliferation. See Silva et al., 2017. For these experiments, Jurkat cells were diluted on RPMI media (supplemented with 10% FBS+1% penicillin-streptomycin) to afford 400 cells/μL. 2 μL of 100 μM stock solutions in DMSO from 138 and pantothenic acid/pantothenic acid derivatives coupled to BODIPY were diluted with 998 μL of RPMI media (supplemented with 10% FBS+1% penicillin-streptomycin) to afford 200 nM solution. 100,000 cells were dispensed to Eppendorf tubes, centrifuged for 1.5 min at 5000 rcf and the supernatant was removed. The cells then were incubated with 500 μL of solutions at 200 nM for 4.5 min and 37 °C. After the incubation time, cells were centrifuged for 1.5 minutes at 5000 rcf. Supernatant was removed and cell pellet re-suspended in 200 μL fresh RPMI media, transferred to 96 well-plate and run on FACS machine, approximately 1,000 cells analysed.

Assay [1] concerns HT29 (colorectal cancer cell line). Kind of assay: FACS uptake of BODIPY FL conjugates (Example 4). As to conditions: 200 nM, 5 min. As to the method: FIG. 4A: Conjugate compounds coupled to BODIPY FL were tested for uptake using 200 nM each conjugate and 5 minute incubation with colorectal cancer cell line HT29. Mean fluorescent intensities (MFI). 1,000 cells were sorted by FACS.
Materials and methods: The HT-29 line was originally isolated from a primary tumour in 1964 from a person. This cell line is positive for expression of N-ras and overexpression of p53 antigen. The human colon adenocarcinoma cell line HT29, is not only used to study the biology of human colon cancers, but it is receiving special interest in studies focused on food digestion and bioavailability due to the ability to express characteristics of mature intestinal cells. The application of this cell line to transport studies of drugs and food compounds is illustrated, especially when the effect of the mucus layer is considered or used as co-culture in combination with Caco-2 cells. These cells have shown a high rate of glucose consumption and therefore, they require high glucose concentration in the medium. Verhoeck et al., 2015.
For these experiments, HT-29 or MEF cells were diluted on αMEM media (supplemented with 10% FBS+1% penicillin-streptomycin) to give a 250 cells/μL suspension of which 200 μL were aliquoted into each well of a 96 well plate followed by incubation for 24 hours. Next, 2 μL of 100 μM stock solutions in DMSO from the conjugates coupled to BODIPY were diluted with 998 μL of αMEM media to give a 200 nM solution. After 24 hour incubation, media was removed and 200 μL of 138 and pantothenic acid/pantothenic acid derivatives coupled to BODIPY 200 nM solutions were added and cells were incubated for 5 minutes at 37 °C. After 5 minutes, the compounds and DMSO solutions were removed and cells were washed with PBS. Then, 100 μL of TrypLE trypsin were added to each well and incubated for 5 minutes at 37 °C. After this time, 100 μL of DMEM media were added to the wells and samples were sorted through FACS biosort. The studies were completed in duplicated wells.

Assay [2] concerns NZM40 (NRAS Q16H) melanoma cells. Kind of assay: FACS uptake of BODIPY FL conjugates, 200 nM, 5 min (Example 2). Here is the method: FIG. 2. Conjugate compounds coupled to BODIPY FL were tested for uptake using 200 nM each conjugate and 5 minute incubation with melanoma cell line NZM11 (BRAF V600E mutant metastatic melanoma), melanoma cell line NZM40 (NRAS Q16H mutant metastatic melanoma) and melanoma cell line NZM9 (BRAF and NRAS wildtype metastatic melanoma). Mean fluorescent intensities (MFI). 2,000 cells (NZM11), 1,000 cells (NZM40) and 500-1,000 cells (NZM9). Cells were sorted by FACS. Bars represent mean±SD. Results were from a single experiment done in triplicate.
NZM40 is an adherent cell line which was originally derived from a metastatic melanoma from a patient, in 2004. This human metastatic melanoma is identified with code CBA-1381 from Cell bank Australia. […] Ras is a superfamily of proteins implicated in cell growth, survival and differentiation. NRAS (neuroblastoma rat sarcoma) was the first oncogene recognized in melanoma and mutations in NRAS account for 20% of all melanomas. NRAS mutations primarily occur at position 61 and involve amino acid change from glutamine (Q) to arginine (R), lysine (K), leucine (L) or histidine (H). These mutations block NRAS into a GTP-bound state damaging its GTPase activity (FIG. 1). Patients are usually older (>55 years) with previous UV exposure. See Garcia-Alverez et al., 2021.
For screening, NZM11, NZM40 and NZM9 cells were suspended at […] dispensed into 96 well plates and left to settle for 48 hours. Then, 10 μL of 10 mM stock solutions in DMSO for the conjugates were diluted with HBSS to afford 400 nM solution. Next, 400 nM compounds and DMSO solutions were diluted 1:1 with MEMα media to afford 200 nM solutions. After 48 hours the media was removed from the 96 well plates and 200 μL of 200 nM conjugates solutions dispensed to each well (in triplicate) and incubated for 5 minutes at 37 °C. After 5 minutes, the media was removed and cells washed with PBS. Then, 100 μL of TrypLE trypsin (ThermoFisher Scientific) were added to each well and incubated for 5 minutes at 37 °C after which, 100 μL of MEMα media were added and samples were sorted through FACS biosort. The FACS results output were represented as the mean of the fluorescence intensities (in arbitrary units) measured for cells sorted in every sample.

For another assay, the system named is neutrophils. Description: FACS uptake of BODIPY FL conjugates in PBMCs (Example 3). Particulars: 135 nM. Here is the method: (§1) FIG. 3A. Conjugate compounds coupled to BODIPY FL were tested for uptake using 135 nM each conjugate and 4.5 minute incubation with human lymphocytes, monocytes and neutrophils (from a healthy donor). Mean fluorescent intensities (MFI). 1,000 cells (lymphocytes), 500 cells (monocytes) and 250 cells (neutrophils) sorted by FACS. Bars represent mean±SD. Results represent a single experiment done in duplicate.
(§2) In addition to this, 25 mL of full blood was collected from a healthy donor in lithium-heparin vacutainer. Peripheral blood mononuclear cells (PBMCs) were collected after ficoll separation. PBMCs then were centrifuge at 400 g for 5 minutes. Supernatant was removed from the cells and resuspended with 20 mL of HBSS with a final concentration of 417,500 cells/mL. Then, 479 μL of cells suspension were poured into Eppendorf tube and 1000 μL of 200 nM drug solution in HBSS were added to afford 135 nM final drug concentration, incubated at 37 °C for 5 minutes. After incubation time, PBMCs were centrifuged at 400 g for 5 minutes. Supernatant was removed from the cells and pellet resuspended with 200 μL of HBSS. Suspension was transferred to 96 well-plate and run on FACS machine, approximately 1,000-250 cells analysed. The FACS results output represented the mean of the fluorescence intensities (in arbitrary units) measured for cells sorted in every sample.

The test system of a further assay is monocytes. Described as above. Particulars: 135 nM. As to the method:
as §1, §2

`CC1=CC(C)=[N+]2C1=Cc1ccc(CCCn3cc(CCNC(=O)/C=C/NC(=O)[C@H]4OC(C)(C)OCC4(C)C)nn3)n1[B-]2(F)F` [Compound 127, (E)-N-((((3-[4,4-Difluoro-5,7-dimethyl-4-bora-3a,4a-diaza-s-indacene-3-yl]propyl)-1H-1,2,3-triazol-4-yl)ethylamino)-3-oxoprop-1-enyl)-2,2,5,5-tetramethyl-1,3-dioxane-4-carboxamide]: in the assay with Jurkat cells, the uptake / targeting result is on record as “showed targeting”. The “uptake (fluorescent intensities)” value in assay [1] is “moderately higher fluorescent intensities”. Further, in assay [2], the “uptake (fluorescence intensities)” value is “showed selectivity”. Also, the “targeting / fluorescence intensities” value with neutrophils and with monocytes was “showed targeting” throughout.
As to `CC1=CC(C)=[N+]2C1=Cc1ccc(CCCn3cc(CCNC(=O)/C=C\NC(=O)[C@H](O)C(C)(C)CO)nn3)n1[B-]2(F)F` [Compound 128, (Z)—N-((((3-[4,4-Difluoro-5,7-dimethyl-4-bora-3a,4a-diaza-s-indacene-3-yl]propyl)-1H-1,2,3-triazol-4-yl)ethylamino)-3-oxoprop-1-enyl)-2,4-dihydroxy-3,3-dimethylbutanamide], in the assay with Jurkat cells, the uptake / targeting entry is given as “showed targeting”. Also, the “uptake (fluorescence intensities)” value in assay [2] is recorded as “showed selectivity”. Besides, the “targeting / fluorescence intensities” value in the assay with neutrophils and with monocytes was “significant intensities” throughout.

These data come from patent US20260364186A1, “Chemical Conjugates, Compositions, and Methods of Preparation and Use Thereof” (Transfection Holdings Limited, priority 2022, published 2026).
